Test results taken from patent publication US20110268789A1, “USE OF PITUITARY ADENYLATE CYCLASE-ACTIVATING POLYPEPTIDE (PACAP) AND PACAP ANALOGS AS ADJUNCTIVE TREATMENTS WITH ANTICANCER AGENTS” (priority 2008, published 2011).
Read-outs that look alike come from different tables or passages of the source.

How the values were obtained:
[1] = system: MCF-7 human breast cancer cells; assay: Doxorubicin-induced apoptotic cell death of breast cancer cells; assay type: cell-based; settings: MCF-7 cells, doxorubicin 48 hours, FIG. 14
Description: The MCF-7 human breast cancer cells were cultured in Eagle's Minimum Essential Medium supplemented with 10% non-inactivated fetal bovine serum and 0.05 mM 2-mercaptoethanol. The effects of PACAP38 and N-acetyl[Ala^16,17,D-Lys^38]PACAP38 on apoptotic cell death were assessed by the quantitative determination of cytoplasmic histone-associated DNA-fragmentation (mono- and oligonucleosomes) after exposure to doxorubicin for 48 hours. Each value represents the mean plus/minus the standard deviation of three determinations. **p<0.01 compared to the doxorubicin-treated (control) cells.
At the highest dose tested (10^−6 M), both peptides reduced the apoptotic cell death of these breast cancer cells by more than 50%.

[2] = system: Middle cerebral artery occlusion (MCAO) in the rat; settings: cited from earlier work; for reduction of the infarct volume: 48 hours after start
[3] = system: human erythroleukemia cells; assay: Thalidomide-induced apoptotic cell death of erythroleukemia cells; assay type: cell-based
Description: The human myeloid leukemia cells were cultured in RPMI 1640 medium supplemented with 10% non-inactivated fetal bovine serum. The effects of PACAP38, [D-Ser^2]PACAP38 and VIP on apoptotic cell death was assessed by the quantitative determination of cytoplasmic histone-associated DNA-fragmentation (mono- and oligonucleosomes) after exposure to thalidomide for 48 hours. Each value represents the mean plus/minus the standard deviation of four determinations. **p<0.01 and *p<0.05 compared to the thalidomide-treated (control) cells.

[4] = system: Four-vessel occlusion in the rat; settings: cited from earlier work
[5] = system: Jurkat human T-lymphocyte leukemia cells; assay: Etoposide-induced apoptotic cell death of leukemia cells; assay type: cell-based
Description: The Jurkat human T-lymphocyte leukemia cells were cultured in RPMI 1640 medium supplemented with 10% non-inactivated fetal bovine serum. The effects of PACAP27 and PACAP38 on apoptotic cell death was assessed by the quantitative determination of cytoplasmic histone-associated DNA-fragmentation (mono- and oligonucleosomes) after exposure to etoposide for 48 hours. Each value represents the mean plus/minus the standard deviation of three determinations. **p<0.01 and *p<0.05 compared to the etoposide-treated (control) cells.

[6] = system: L-132 human lung cells; assay: Bleomycin-induced apoptotic cell death of human pulmonary epithelial cells; assay type: cell-based; settings: L-132 cells, peptide added to the medium, FIG. 12
Description: The L-132 human lung cells were cultured in Eagle's Minimum Essential Medium supplemented with 10% fetal bovine serum. […] Each value represents the mean plus/minus the standard deviation of four determinations in three replicate experiments. **p<0.01 and *p<0.05 compared to the bleomycin-treated (control) cells.
At the highest dose tested (10^−6 M), all three peptides reduced the apoptotic cell death of these epithelial cells by more than 60%. […] Therefore, pre- and/or post-treatment of subjects undergoing bleomycin-based cancer chemotherapy with therapeutic doses of PACAP38 and/or PACAP analogs should result in a higher maximal tolerable dose of bleomycin, and an increased frequency of partial clinical responses and/or an increased number of complete remissions.

[7] = system: light-chain immunoglobulin-secreting human myeloma cells; assay: Vincristine-induced apoptotic cell death of myeloma cells; assay type: cell-based
Description: The light-chain immunoglobulin-secreting human myeloma cells were cultured in RPMI 1640 medium supplemented with 10% non-inactivated fetal bovine serum and 0.05 mM 2-mercaptoethanol. The effects of PACAP38 on apoptotic cell death was assessed by the quantitative determination of cytoplasmic histone-associated DNA-fragmentation (mono- and oligonucleosomes) after exposure to vincristine for 48 hours. Each value represents the mean plus/minus the standard deviation of four determinations. **p<0.01 and *p<0.05 compared to the vincristine-treated (control) cells.

[8] = system: light-chain immunoglobulin-secreting human myeloma cells; assay: Carmustine-induced apoptotic cell death of myeloma cells; assay type: cell-based
Description: The light-chain immunoglobulin-secreting human myeloma cells were cultured in RPMI 1640 medium supplemented with 10% non-inactivated fetal bovine serum and 0.05 mM 2-mercaptoethanol. The effects of PACAP38, and [Ala^22]PACAP38 on apoptotic cell death was assessed by the quantitative determination of cytoplasmic histone-associated DNA-fragmentation (mono- and oligonucleosomes) after exposure to carmustine for 48 hours. Each value represents the mean plus/minus the standard deviation of three determinations. **p<0.01 and *p<0.05 compared to the carmustine-treated (control) cells.

[9] = system: HK-2 human kidney cells; assay: Cisplatin-induced apoptotic cell death of human renal proximal tubule epithelial cells (histone-associated DNA fragmentation); assay type: cell-based; settings: HK-2 cells
Description: The HK-2 human kidney cells were cultured in Keratinocyte-Serum Free Medium supplemented with recombinant epidermal growth factor and bovine pituitary extract. The dose-dependent inhibitory effect of PACAP38 on apoptotic cell death was assessed by the quantitative determination of cytoplasmic histone-associated DNA-fragmentation (mono- and oligonucleosomes) after exposure to cisplatin for 24 hours. Each value represents the mean plus/minus the standard error of four determinations in three replicate experiments. **p<0.01 compared to the cisplatin-treated (control) cells.
The HK-2 human kidney cells were cultured in Keratinocyte-Serum Free Medium supplemented with recombinant epidermal growth factor and bovine pituitary extract. The dose-dependent inhibitory effect of PACAP38 on apoptotic cell death was assessed by the quantitative determination of cytoplasmic histone-associated DNA-fragmentation (mono- and oligonucleosomes) after exposure to cisplatin for 24 hours. Each value represents the mean plus/minus the standard deviation of four determinations in three different experiments. **p<0.01 and *p<0.05 compared to the cisplatin-treated (control) cells.

[10] = system: PC-12 rat pheochromocytoma cells; assay: Cisplatin-induced apoptotic cell death of pheochromocytoma cells; assay type: cell-based; settings: PC-12 cells
Description: The PC-12 rat pheochromocytoma cells were cultured in F-12K medium supplemented with 15% horse serum and 2.5% fetal bovine serum. The dose-dependent inhibitory effects of PACAP38 and the PACAP38 analogs on apoptotic cell death were assessed by the quantitative determination of cytoplasmic histone-associated DNA-fragmentation (mono- and oligonucleosomes) after exposure to cisplatin for 24 hours. Each value represents the mean plus/minus the standard error of four determinations. **p<0.01 and *p<0.05 compared to the cisplatin-treated (control) cells.

Q: With PACAP38 as the substance, how does the “reduction in doxorubicin-induced apoptotic cell death” value [1] read?
A: dose-dependent reduction

Q: What about the “reduction of the infarct volume” value ([2]; 160 pmol/hr i.v. infusion beginning 4 hours after start of MCAO) of the same substance?
A: approximately 51%

Q: What about the “reduction of the infarct volume” value ([2]; 160 pmol/hr i.v. infusion beginning 8 hours after start of MCAO) of the same substance?
A: ~22%

Q: What about the “reduction of the infarct volume” value ([2]; 160 pmol/hr i.v. infusion beginning 12 hours after start of MCAO) of the same substance?
A: ~12%

Q: What about the “effect of continuous intravenous infusion on plasma glucose levels, blood gases, blood pressure” value ([2]; 160 pmol/hr i.v.) of the same substance?
A: did not appear to alter plasma glucose levels, blood gases or blood pressure

Q: What about the “lowest dose with significant enhancement of thalidomide-induced apoptotic cell death” value [3] of the same substance?
A: 10^−8 M

Q: And the “effect on thalidomide-induced apoptotic cell death” value ([3]; thalidomide 48 hours, FIG. 20)?
A: dose-dependent enhancement

Q: What about the “reduction in the number of CA1 pyramidal cells at day 7 post-occlusion” value ([4]; 16 pmol/hr or 160 pmol/hr i.v. for 6 days beginning 24 hours after occlusion) of the same substance?
A: significantly reversed

Q: And the “side-effects during 6 days continuous infusion” value ([4]; 16 pmol/hr or 160 pmol/hr i.v.)?
A: no obvious side-effects

Q: What about the “reduction in etoposide-induced apoptotic cell death” value ([5]; Jurkat cells, etoposide 48 hours, FIG. 15) of the same substance?
A: small reduction

Q: And the “significance of the reduction of etoposide-induced apoptotic cell death” value ([5]; Jurkat cells, highest dose tested 10^−6 M)?
A: only significant at the highest dose

Q: And the “potency as cytoprotectant of kidney and lung epithelial cells relative to protection of T-lymphocyte leukemia cells against etoposide” value ([5]; versus cisplatin (FIG. 3), doxorubicin (FIG. 11), bleomycin (FIG. 12))?
A: about 100 fold

Q: What about the “reduction in bleomycin-induced apoptotic cell death” value [6] of the same substance?
A: significant dose-dependent reduction

Q: And the “lowest dose with significant enhancement of vincristine-induced apoptotic cell death” value [7]?
A: 10^−9 M

Q: What about the “effect on vincristine-induced apoptotic cell death” value ([7]; vincristine 48 hours, FIG. 18) of the same substance?
A: dose-dependent enhancement

Q: And the “relative potency as enhancer of carmustine-induced apoptotic cell death” value [8]?
A: more potent than [Ala^22]PACAP38

Q: And the “effect on carmustine-induced apoptotic cell death” value ([8]; carmustine 48 hours, FIG. 17)?
A: enhancement

Q: And the “effect on carmustine-induced apoptotic cell death” value ([8]; highest dose tested (10^−6 M))?
A: significantly enhanced

Q: What about the “reduction in cisplatin-induced apoptotic cell death” value ([9]; cisplatin 24 hours, peptide added to the medium, FIG. 3) of the same substance?
A: significant dose-dependent reduction

Q: What about the “relative effectiveness as protectants against cisplatin-induced apoptotic cell death” value ([9]; comparable concentrations, FIG. 4) of the same substance?
A: similarly effective

Q: And the “prevention of apoptotic cell death caused by cisplatin” value ([9]; highest dose tested)?
A: almost completely prevented

Q: What about the “reduction in cisplatin-induced apoptotic cell death” value ([10]; cisplatin 24 hours, FIG. 13) of the same substance?
A: dose-dependent reduction

Q: What about the “reduction of cisplatin-induced apoptotic cell death” value ([10]; highest dose tested (10^−6 M)) of the same substance?
A: significantly reduced
